The subject of assay [1] is T-Rex 293 cell line SC3 cells having increased expression of androgen receptor protein due to exposure to doxycycline. The experiment in a line: Cellular growth inhibition, T-Rex 293 SC3 cells with doxycycline (increased androgen receptor expression), CellTiter-Glo. In kind it is cell-based. The note with it: T-Rex 293 SC3 cells with 10 ng/mL doxycycline (increased androgen receptor expression), 72 hours, CellTiter-Glo 2.0. Put shortly: (§1)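 Growth inhibition is measured in an inducible AR-expressing T-Rex 293 clone, SC3, cultured with or without 10 ng/mL doxycycline in hormone-depleted medium. Test compounds are applied for 72 hours. GI50 values derive from CellTiter-Glo 2.0 signal fitted by four-parameter regression.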

Assay [2] relates to T47D cells. The assay is described as follows: Cellular Growth Inhibition Assay for T47D Cells (CellTiter-Glo). In kind it is cell-based, human. Conditions: 72 hours. Put shortly:
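GI50 values derive from four-parameter regression of CellTiter-Glo 2.0 luminescence, using zero luminescence as baseline. Human breast cancer T47D cells (3000/well; DMEM, 10% FBS, 0.2 units/mL insulin) were exposed for 72 h to compound dilutions at 0.5% DMSO, with dosing starting 24 h after seeding.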
Background: Cellular ATP, detected with luciferase, serves as a proxy for viable cell number.

The test system of assay [3] is VCaP cells. The experiment in a line: Cellular growth inhibition assay for VCaP cells, CellTiter-Glo. In kind it is cell-based, human. Conditions: 72 hours. Put shortly:
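GI50 values come from four-parameter curve fits of luminescence data normalized to a zero baseline. Compound, in medium with 0.5% DMSO, was added one day after plating and left for 72 h before CellTiter-Glo 2.0 addition.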

In assay [4] the test system is T-Rex 293 cell line SC3 cells lacking increased expression of androgen receptor protein. The assay is described as follows: Cellular growth inhibition, T-Rex 293 SC3 cells without doxycycline (no increased androgen receptor expression), CellTiter-Glo. Type of assay: cell-based. Conditions: T-Rex 293 SC3 cells not exposed to doxycycline (no increased androgen receptor expression), 72 hours. Put shortly:
as §1

What is called GI50 is the concentration that inhibits growth by half. Low readings indicate more potent growth inhibition, high ones less potent growth inhibition. Turning to `CCS(=O)(=O)c1ccc(Oc2ccc(N3CC(C4CCN(c5ncc(C(=O)N[C@H]6C(C)(C)[C@H](Oc7ccc(C#N)c(Cl)c7)C6(C)C)cn5)CC4)C3)cc2)c(-c2cn(C)c(=O)c3[nH]ccc23)c1` [Compound I-291], the GI50 in assay [1], in assay [2], in assay [3] and in assay [4] was below 500 nM throughout.
`CCS(=O)(=O)c1ccc(-c2cn(C)c(=O)c3[nH]ccc23)c(-n2cc(CCC3CCN(c4ncc(C(=O)NC5C(C)(C)C(Oc6ccc(C#N)c(Cl)c6)C5(C)C)cn4)CC3)ncc2=O)c1` (centres unmarked) [Compound I-292, N-[3-(3-chloro-4-cyano-phenoxy)-2,2,4,4-tetramethyl-cyclobutyl]-2-[4-[2-[4-[5-ethylsulfonyl-2-(6-methyl-7-oxo-1H-pyrrolo[2,3-c]pyridin-4-yl)phenyl]-5-oxo-pyrazin-2-yl]ethyl]-1-piperidyl]pyrimidine-5-carboxamide]: the GI50 in assay [1], in assay [2] (Homo sapiens), in assay [3] (Homo sapiens) and in assay [4] was below 500 nM throughout.
Take `CCS(=O)(=O)Cc1ccc(Oc2cccc(OC(C)(C)CCC3CCN(c4ncc(C(=O)N[C@H]5C(C)(C)[C@H](Oc6ccc(C#N)c(Cl)c6)C5(C)C)cn4)CC3)c2)c(-c2cn(C)c(=O)c3[nH]ccc23)c1` [Compound I-293]: the GI50 in assay [1] is below 500 nM; in assay [2], below 500 nM; in assay [3], below 500 nM; in assay [4], above 3000 nM.
For `Cn1cc(-c2cc(C(C)(C)O)ccc2Oc2cccc(N3CC(CN4CCN(c5ncc(C(=O)N[C@H]6C(C)(C)[C@H](Oc7ccc(C#N)c(Cl)c7)C6(C)C)cn5)CC4(C)C)C3)c2F)c2cc[nH]c2c1=O` [Compound I-294], the GI50 was below 500 nM in assay [1], below 500 nM in assay [2], below 500 nM in assay [3] and above 3000 nM in assay [4].
On to `CCS(=O)(=O)c1ccc(OC2CC(OC3CC4(CCN(c5ncc(C(=O)NC6C(C)(C)C(Oc7ccc(C#N)c(Cl)c7)C6(C)C)cn5)CC4)C3)C2)c(-c2cn(C)c(=O)c3[nH]ccc23)c1` (centres unmarked) [Compound I-295, N-[3-(3-chloro-4-cyano-phenoxy)-2,2,4,4-tetramethyl-cyclobutyl]-2-[2-[3-[4-ethylsulfonyl-2-(6-methyl-7-oxo-1Hpyrrolo[2,3-c]pyridin-4-yl)phenoxy]cyclobutoxy]-7-azaspiro[3.5]nonan-7-yl]pyrimidine-5-carboxamide], for which the GI50 in assay [1], in assay [2] (Homo sapiens), in assay [3] (Homo sapiens) and in assay [4] was below 500 nM each time.
On to `Cn1cc(-c2cc(C(C)(C)O)ccc2OC2CC3CC2CC3OCC2CCN(c3ncc(C(=O)N[C@H]4C(C)(C)[C@H](Oc5ccc(C#N)c(Cl)c5)C4(C)C)cn3)CC2)c2cc[nH]c2c1=O` (some centres unmarked) [Compound I-296], for which the GI50 was below 500 nM in assay [1], above 3000 nM in assay [2], below 500 nM in assay [3] and above 3000 nM in assay [4].
Turning to `Cn1cc(-c2cc(C(C)(C)O)ccc2Oc2ccc(OC3CCN(c4ncc(C(=O)N[C@H]5C(C)(C)[C@H](Oc6ccc(C#N)c(Cl)c6)C5(C)C)cn4)CC3)nc2)c2cc[nH]c2c1=O` [Compound I-297, N-[3-(3-chloro-4-cyano-phenoxy)-2,2,4,4-tetramethyl-cyclobutyl]-2-[4-[[5-[4-(1-hydroxy-1-methyl-ethyl)-2-(6-methyl-7-oxo-1H-pyrrolo[2,3-c]pyridin-4-yl)phenoxy]-2-pyridyl]oxy]-1-piperidyl]pyrimidine-5-carboxamide], the GI50 in assay [1], in assay [2] (Homo sapiens), in assay [3] (Homo sapiens) and in assay [4] was below 500 nM in each case.
In the case of `Cn1cc(-c2cc(C(C)(C)O)ccc2Oc2ccc(CC3CCN(c4ncc(C(=O)N[C@H]5C(C)(C)[C@H](Oc6ccc(C#N)c(Cl)c6)C5(C)C)cn4)CC3)nc2)c2cc[nH]c2c1=O` [Compound I-298, N-[3-(3-chloro-4-cyano-phenoxy)-2,2,4,4-tetramethyl-cyclobutyl]-2-[4-[[5-[4-(1-hydroxy-1-methyl-ethyl)-2-(6-methyl-7-oxo-1H-pyrrolo[2,3-c]pyridin-4-yl)phenoxy]-2-pyridyl]methyl]-1-piperidyl]pyrimidine-5-carboxamide], the GI50 in assay [1], in assay [2] (Homo sapiens), in assay [3] (Homo sapiens) and in assay [4] was below 500 nM in each case.
In the case of `Cn1cc(-c2cc(C(C)(C)O)ccc2Oc2ccc(CN3CC4(C3)CN(c3ncc(C(=O)N[C@H]5C(C)(C)[C@H](Oc6ccc(C#N)c(Cl)c6)C5(C)C)cn3)CCO4)cc2)c2cc[nH]c2c1=O` [Compound I-300], the GI50 in assay [1], in assay [2], in assay [3] and in assay [4] was below 500 nM throughout.
With `Cn1cc(-c2cc(C(C)(C)O)ccc2Oc2ccc(CCC3CCCN(c4ncc(C(=O)N[C@H]5C(C)(C)[C@H](Oc6ccc(C#N)c(Cl)c6)C5(C)C)cn4)C3)cc2)c2cc[nH]c2c1=O` (some centres unmarked) [Compound I-301], the GI50 in assay [1] was below 500 nM; in assay [2], below 500 nM; in assay [3], 500 to 1500 nM; in assay [4] it was above 3000 nM.
As to `Cn1cc(-c2cc(C(C)(C)O)ccc2Oc2ccc(CCC3CCN(c4ncc(C(=O)N[C@H]5C(C)(C)[C@H](Oc6ccc(C#N)c(Cl)c6)C5(C)C)cn4)CC3)nc2)c2cc[nH]c2c1=O` [Compound I-302], the concentration for 50% growth inhibition (GI50) in assay [1] was below 500 nM; in assay [2], 500 to 1500 nM; in assay [3], below 500 nM; in assay [4], 500 to 1500 nM.
Turning to `Cn1cc(-c2cc(C(C)(C)O)ccc2Oc2ccc(CCC3CN(c4ncc(C(=O)N[C@H]5C(C)(C)[C@H](Oc6ccc(C#N)c(Cl)c6)C5(C)C)cn4)CCO3)cc2)c2cc[nH]c2c1=O` (some centres unmarked) [Compound I-305], the GI50 in assay [1] was below 500 nM; in assay [2] (Homo sapiens), below 500 nM; in assay [3] (Homo sapiens), below 500 nM; in assay [4] it was above 3000 nM.
Take `Cn1cc(-c2cc(C(C)(C)O)ccc2Oc2ccc(CCCC3CCCN(c4ncc(C(=O)N[C@H]5C(C)(C)[C@H](Oc6ccc(C#N)c(Cl)c6)C5(C)C)cn4)C3)cc2)c2cc[nH]c2c1=O` (some centres unmarked) [Compound I-306]: the 50% growth inhibitory concentration (GI50) is below 500 nM in assay [1], above 3000 nM in assay [2], 500 to 1500 nM in assay [3] and above 3000 nM in assay [4].
As to `Cn1cc(-c2cc(C(C)(C)O)ccc2Oc2ccc(CCCC3CN(c4ncc(C(=O)N[C@H]5C(C)(C)[C@H](Oc6ccc(C#N)c(Cl)c6)C5(C)C)cn4)CCO3)cc2)c2cc[nH]c2c1=O` (some centres unmarked) [Compound I-307], the GI50 in assay [1] was below 500 nM; in assay [2] it was below 500 nM; in assay [3], below 500 nM; in assay [4], above 3000 nM.
Regarding `Cn1cc(-c2cc(C(C)(C)O)ccc2Oc2ccc(C(C)(C)N3CC4(CCN(c5ncc(C(=O)N[C@H]6C(C)(C)[C@H](Oc7ccc(C#N)c(Cl)c7)C6(C)C)cn5)CC4)C3)cc2)c2cc[nH]c2c1=O` [Compound I-308], the GI50 in assay [1] was below 500 nM; in assay [2] (Homo sapiens), above 3000 nM; in assay [3] (Homo sapiens) it was below 500 nM; in assay [4], 500 to 1500 nM.
As for `Cn1cc(-c2cc(C(C)(C)O)ccc2O[C@H]2C[C@H](CC3CCN(c4ncc(C(=O)N[C@H]5C(C)(C)[C@H](Oc6ccc(C#N)c(Cl)c6)C5(C)C)cn4)CC3)C2)c2cc[nH]c2c1=O` [Compound I-309, N-[3-(3-chloro-4-cyano-phenoxy)-2,2,4,4-tetramethyl-cyclobutyl]-2-[4-[[3-[4-(1-hydroxy-1-methyl-ethyl)-2-(6-methyl-7-oxo-1H-pyrrolo[2,3-c]pyridin-4-yl)phenoxy]cyclobutyl]methyl]-1-piperidyl]pyrimidine-5-carboxamide], the GI50 was below 500 nM in assay [1], below 500 nM in assay [2] (Homo sapiens), below 500 nM in assay [3] (Homo sapiens) and 500 to 1500 nM in assay [4].
Consider `Cn1cc(-c2cc(C(C)(C)O)ccc2O[C@H]2C[C@H](CCC3CCN(c4ncc(C(=O)N[C@H]5C(C)(C)[C@H](Oc6ccc(C#N)c(Cl)c6)C5(C)C)cn4)CC3)C2)c2cc[nH]c2c1=O` [Compound I-310], for which the GI50 in assay [1], in assay [2], in assay [3] and in assay [4] was below 500 nM throughout.
Turning to `Cn1cc(-c2cc(C(C)(C)O)ccc2Oc2ccc(C3CC(N4CCN(c5ncc(C(=O)N[C@H]6C(C)(C)[C@H](Oc7ccc(C#N)c(Cl)c7)C6(C)C)cn5)CC4)C3)cc2)c2cc[nH]c2c1=O` (some centres unmarked) [Compound I-311], the GI50 in assay [1] is below 500 nM; in assay [2] it was below 500 nM; in assay [3], below 500 nM; in assay [4], 500 to 1500 nM.
As to `Cn1cc(-c2cc(C(C)(C)O)ccc2Oc2ccc(C(C)(C)N3CC4(CN(c5ncc(C(=O)N[C@H]6C(C)(C)[C@H](Oc7ccc(C#N)c(Cl)c7)C6(C)C)cn5)CCO4)C3)cc2)c2cc[nH]c2c1=O` [Compound I-312], the GI50 in assay [1] was below 500 nM; in assay [2], 500 to 1500 nM; in assay [3], below 500 nM; in assay [4], 500 to 1500 nM.
As to `Cn1cc(-c2cc(C(C)(C)O)ccc2Oc2ccc(N3CC(CC4CN(C5CCC(C(=O)N[C@H]6C(C)(C)[C@H](Oc7ccc(C#N)c(Cl)c7)C6(C)C)CC5)C4)C3)cc2)c2cc[nH]c2c1=O` (some centres unmarked) [Compound I-313], the GI50 was 500 to 1500 nM in assay [1], below 500 nM in assay [2] (Homo sapiens), below 500 nM in assay [3] (Homo sapiens) and 500 to 1500 nM in assay [4].

The values are drawn from patent US20250388605A1, “HETEROBIFUNCTIONAL COMPOUNDS AND METHODS OF TREATING DISEASE” (Halda Therapeutics OpCo, Inc., priority 2022, published 2025).
